Laboratory results as given in ChEMBL document CHEMBL4507319 (2021).

What was measured:
[1] = tested on: Fibroblast growth factor receptor 3 (Homo sapiens), P22607 [G697C]; settings: Compound concentration 1000.0 nM
[2] = molecular target: Calcium/calmodulin-dependent protein kinase type 1D (Homo sapiens) (UniProt Q8IU85); settings: Compound concentration 1000.0 nM
[3] = molecular target: Serine/threonine-protein kinase 16 (Homo sapiens) (UniProt O75716); settings: Compound concentration 1000.0 nM
Serine/threonine-protein kinase 16 (Homo sapiens), sequence (O75716 whole entry): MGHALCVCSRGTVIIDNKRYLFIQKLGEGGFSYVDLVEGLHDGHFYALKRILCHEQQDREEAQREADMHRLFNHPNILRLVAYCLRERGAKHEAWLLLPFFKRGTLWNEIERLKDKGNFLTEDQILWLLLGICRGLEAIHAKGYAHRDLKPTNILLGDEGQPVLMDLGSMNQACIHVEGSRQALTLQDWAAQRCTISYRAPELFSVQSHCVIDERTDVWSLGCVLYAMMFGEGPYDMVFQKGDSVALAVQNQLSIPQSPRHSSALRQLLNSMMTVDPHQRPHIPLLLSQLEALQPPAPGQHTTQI

[4] = molecular target: Dual specificity mitogen-activated protein kinase kinase 1 (Homo sapiens) (UniProt Q02750); settings: Compound concentration 1000.0 nM
Dual specificity mitogen-activated protein kinase kinase 1 (Homo sapiens), sequence (Q02750 whole entry): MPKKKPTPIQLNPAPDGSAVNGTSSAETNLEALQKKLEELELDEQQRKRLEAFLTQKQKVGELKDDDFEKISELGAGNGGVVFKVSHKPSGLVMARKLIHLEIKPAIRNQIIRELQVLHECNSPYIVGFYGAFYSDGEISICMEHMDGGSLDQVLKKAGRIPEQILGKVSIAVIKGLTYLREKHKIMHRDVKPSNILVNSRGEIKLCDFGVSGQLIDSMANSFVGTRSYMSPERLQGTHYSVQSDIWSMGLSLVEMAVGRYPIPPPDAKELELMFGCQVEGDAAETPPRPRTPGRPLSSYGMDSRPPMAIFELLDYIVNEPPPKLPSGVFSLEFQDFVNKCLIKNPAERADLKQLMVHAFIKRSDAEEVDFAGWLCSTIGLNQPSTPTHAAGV

[5] = molecular target: Peripheral plasma membrane protein CASK (Homo sapiens) (UniProt O14936); settings: Compound concentration 1000.0 nM
Peripheral plasma membrane protein CASK (Homo sapiens), sequence (O14936 whole entry): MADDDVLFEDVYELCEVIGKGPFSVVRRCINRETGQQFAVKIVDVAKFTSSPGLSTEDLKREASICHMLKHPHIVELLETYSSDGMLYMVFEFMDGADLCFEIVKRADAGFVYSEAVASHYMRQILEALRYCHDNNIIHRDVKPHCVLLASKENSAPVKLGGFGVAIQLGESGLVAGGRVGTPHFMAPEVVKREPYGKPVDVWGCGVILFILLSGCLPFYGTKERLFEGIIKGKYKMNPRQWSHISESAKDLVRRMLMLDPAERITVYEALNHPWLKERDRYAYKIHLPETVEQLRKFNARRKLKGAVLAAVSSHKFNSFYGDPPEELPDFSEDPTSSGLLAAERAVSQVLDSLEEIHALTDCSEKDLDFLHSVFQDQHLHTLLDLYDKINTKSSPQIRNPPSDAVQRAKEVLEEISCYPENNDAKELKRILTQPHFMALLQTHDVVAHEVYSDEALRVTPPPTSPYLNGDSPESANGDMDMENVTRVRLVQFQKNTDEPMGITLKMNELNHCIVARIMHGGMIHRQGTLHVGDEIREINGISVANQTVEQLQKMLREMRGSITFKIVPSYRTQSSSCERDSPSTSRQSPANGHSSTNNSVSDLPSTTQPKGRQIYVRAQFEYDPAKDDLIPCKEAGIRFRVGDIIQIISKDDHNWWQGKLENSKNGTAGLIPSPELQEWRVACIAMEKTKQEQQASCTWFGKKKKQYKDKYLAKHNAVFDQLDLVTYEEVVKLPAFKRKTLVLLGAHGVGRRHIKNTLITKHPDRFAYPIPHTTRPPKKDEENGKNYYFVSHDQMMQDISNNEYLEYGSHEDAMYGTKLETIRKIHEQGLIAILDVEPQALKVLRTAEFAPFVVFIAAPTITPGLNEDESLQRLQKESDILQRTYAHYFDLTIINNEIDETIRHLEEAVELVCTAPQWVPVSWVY

[6] = molecular target: Serine/threonine-protein kinase WNK1 (Homo sapiens) (UniProt Q9H4A3); settings: Compound concentration 1000.0 nM
[7] = molecular target: T1, Ephrin type-B receptor 4 (Homo sapiens) (UniProt P54760); settings: Compound concentration 1000.0 nM
T1 sequence (whole entry): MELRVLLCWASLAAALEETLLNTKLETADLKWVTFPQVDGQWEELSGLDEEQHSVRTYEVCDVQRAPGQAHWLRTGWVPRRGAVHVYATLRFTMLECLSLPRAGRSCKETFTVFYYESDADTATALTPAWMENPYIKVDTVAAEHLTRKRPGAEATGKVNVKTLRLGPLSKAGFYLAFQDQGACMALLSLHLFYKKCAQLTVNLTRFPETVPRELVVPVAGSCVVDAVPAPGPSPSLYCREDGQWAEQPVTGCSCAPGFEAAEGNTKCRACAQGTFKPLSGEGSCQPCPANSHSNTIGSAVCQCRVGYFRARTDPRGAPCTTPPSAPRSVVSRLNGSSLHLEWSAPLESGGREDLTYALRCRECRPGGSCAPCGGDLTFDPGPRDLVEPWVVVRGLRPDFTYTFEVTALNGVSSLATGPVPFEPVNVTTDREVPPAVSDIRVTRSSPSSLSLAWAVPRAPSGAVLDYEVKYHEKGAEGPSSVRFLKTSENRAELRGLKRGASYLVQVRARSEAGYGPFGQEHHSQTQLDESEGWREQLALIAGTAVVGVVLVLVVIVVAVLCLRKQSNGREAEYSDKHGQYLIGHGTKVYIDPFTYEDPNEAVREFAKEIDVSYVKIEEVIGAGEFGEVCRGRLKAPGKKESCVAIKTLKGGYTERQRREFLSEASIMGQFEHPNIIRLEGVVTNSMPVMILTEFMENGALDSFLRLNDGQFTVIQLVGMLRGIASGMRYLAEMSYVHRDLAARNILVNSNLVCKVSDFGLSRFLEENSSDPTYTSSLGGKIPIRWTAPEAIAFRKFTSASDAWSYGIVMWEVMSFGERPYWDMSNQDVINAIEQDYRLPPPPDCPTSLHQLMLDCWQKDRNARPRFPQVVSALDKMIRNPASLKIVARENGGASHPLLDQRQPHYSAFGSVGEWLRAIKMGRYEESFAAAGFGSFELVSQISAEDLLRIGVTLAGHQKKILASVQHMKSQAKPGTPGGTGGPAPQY

[8] = molecular target: Ephrin type-A receptor 7 (Homo sapiens) (UniProt Q15375); settings: Compound concentration 1000.0 nM
Ephrin type-A receptor 7 (Homo sapiens), sequence (Q15375 28-998 limits assumed): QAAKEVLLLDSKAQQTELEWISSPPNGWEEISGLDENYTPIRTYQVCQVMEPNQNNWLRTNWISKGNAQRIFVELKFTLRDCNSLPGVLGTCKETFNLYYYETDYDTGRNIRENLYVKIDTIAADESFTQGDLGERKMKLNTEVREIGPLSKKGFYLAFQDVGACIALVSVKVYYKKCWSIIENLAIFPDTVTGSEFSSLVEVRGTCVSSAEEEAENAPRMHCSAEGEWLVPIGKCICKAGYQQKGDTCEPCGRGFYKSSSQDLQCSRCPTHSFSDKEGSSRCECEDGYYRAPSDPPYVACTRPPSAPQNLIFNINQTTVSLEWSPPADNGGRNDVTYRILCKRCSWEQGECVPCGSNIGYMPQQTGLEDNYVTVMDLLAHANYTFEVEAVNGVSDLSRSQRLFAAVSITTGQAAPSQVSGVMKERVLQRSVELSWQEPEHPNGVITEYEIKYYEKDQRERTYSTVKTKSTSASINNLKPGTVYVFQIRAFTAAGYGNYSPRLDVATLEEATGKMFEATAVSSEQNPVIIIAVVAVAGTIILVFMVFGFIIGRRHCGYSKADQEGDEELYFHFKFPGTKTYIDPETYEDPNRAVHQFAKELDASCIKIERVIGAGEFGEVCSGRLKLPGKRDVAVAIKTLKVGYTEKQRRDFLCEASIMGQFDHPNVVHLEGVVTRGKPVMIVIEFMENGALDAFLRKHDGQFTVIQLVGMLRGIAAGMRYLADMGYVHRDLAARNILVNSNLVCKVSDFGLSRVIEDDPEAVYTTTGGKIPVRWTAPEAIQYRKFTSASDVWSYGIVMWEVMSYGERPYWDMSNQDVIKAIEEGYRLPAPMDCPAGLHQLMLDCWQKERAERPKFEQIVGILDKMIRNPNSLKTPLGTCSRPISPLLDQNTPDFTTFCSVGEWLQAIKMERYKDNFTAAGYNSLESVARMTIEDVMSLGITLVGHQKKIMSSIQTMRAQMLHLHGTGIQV

[9] = molecular target: Myosin light chain kinase 2, skeletal/cardiac muscle (Homo sapiens) (UniProt Q9H1R3); settings: Compound concentration 1000.0 nM
Myosin light chain kinase 2, skeletal/cardiac muscle (Homo sapiens), sequence (Q9H1R3 whole entry): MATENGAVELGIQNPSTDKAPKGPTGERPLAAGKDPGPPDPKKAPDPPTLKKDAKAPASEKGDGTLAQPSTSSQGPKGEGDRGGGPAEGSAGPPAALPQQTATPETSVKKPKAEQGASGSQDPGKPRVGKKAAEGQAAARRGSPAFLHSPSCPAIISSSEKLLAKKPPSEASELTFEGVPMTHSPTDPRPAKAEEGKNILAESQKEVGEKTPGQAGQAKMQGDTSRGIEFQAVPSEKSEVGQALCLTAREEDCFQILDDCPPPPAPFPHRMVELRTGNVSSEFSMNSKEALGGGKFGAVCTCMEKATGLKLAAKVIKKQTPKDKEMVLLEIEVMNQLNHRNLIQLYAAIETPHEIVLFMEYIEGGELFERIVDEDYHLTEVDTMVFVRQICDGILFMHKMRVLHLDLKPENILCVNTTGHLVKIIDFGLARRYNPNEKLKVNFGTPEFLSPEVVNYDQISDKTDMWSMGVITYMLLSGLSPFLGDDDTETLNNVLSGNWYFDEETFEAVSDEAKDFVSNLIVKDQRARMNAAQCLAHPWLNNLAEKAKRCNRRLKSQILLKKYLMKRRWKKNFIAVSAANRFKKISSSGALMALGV

[10] = tested on: Epidermal growth factor receptor (Homo sapiens), P00533 [G719C]; settings: Compound concentration 1000.0 nM
[11] = molecular target: Mitogen-activated protein kinase 11 (Homo sapiens) (UniProt Q15759); settings: Compound concentration 1000.0 nM
Mitogen-activated protein kinase 11 (Homo sapiens), sequence (Q15759 whole entry): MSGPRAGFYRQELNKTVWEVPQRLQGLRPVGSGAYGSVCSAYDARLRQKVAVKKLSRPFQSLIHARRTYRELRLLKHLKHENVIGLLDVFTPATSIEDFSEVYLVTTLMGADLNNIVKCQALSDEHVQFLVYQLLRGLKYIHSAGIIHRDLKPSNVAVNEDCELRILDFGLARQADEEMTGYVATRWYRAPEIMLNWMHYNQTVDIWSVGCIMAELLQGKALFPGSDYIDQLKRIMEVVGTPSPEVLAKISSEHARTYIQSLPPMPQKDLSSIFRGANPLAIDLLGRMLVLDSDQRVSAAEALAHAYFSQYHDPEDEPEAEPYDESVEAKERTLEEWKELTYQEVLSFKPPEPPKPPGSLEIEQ

[12] = molecular target: T2, Beta-adrenergic receptor kinase 1 (Homo sapiens) (UniProt P25098); experiment: GRK2(h) Eurofins kinase panel; settings: Compound concentration 1.0 uM
T2 sequence (whole entry): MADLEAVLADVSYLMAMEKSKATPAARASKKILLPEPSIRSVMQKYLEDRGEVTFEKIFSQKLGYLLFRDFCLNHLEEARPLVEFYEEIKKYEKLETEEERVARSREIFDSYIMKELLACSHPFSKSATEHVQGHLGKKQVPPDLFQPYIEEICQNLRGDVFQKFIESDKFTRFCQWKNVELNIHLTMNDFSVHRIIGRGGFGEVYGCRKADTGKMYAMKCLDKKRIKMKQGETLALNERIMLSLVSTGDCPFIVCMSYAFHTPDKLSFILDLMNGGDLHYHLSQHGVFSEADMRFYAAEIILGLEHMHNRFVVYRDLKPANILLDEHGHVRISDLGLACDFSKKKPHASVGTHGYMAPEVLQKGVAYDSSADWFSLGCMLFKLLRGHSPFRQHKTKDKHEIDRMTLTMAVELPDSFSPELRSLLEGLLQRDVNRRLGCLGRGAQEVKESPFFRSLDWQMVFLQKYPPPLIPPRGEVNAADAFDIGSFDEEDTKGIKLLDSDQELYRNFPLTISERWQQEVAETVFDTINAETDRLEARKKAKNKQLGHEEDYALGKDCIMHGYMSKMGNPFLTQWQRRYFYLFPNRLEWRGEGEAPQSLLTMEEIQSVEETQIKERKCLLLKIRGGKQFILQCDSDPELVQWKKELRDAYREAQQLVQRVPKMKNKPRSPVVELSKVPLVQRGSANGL

[13] = molecular target: MAP kinase-interacting serine/threonine-protein kinase 2 (Homo sapiens) (UniProt Q9HBH9); experiment: Mnk2(h) Eurofins kinase panel; settings: Compound concentration 1.0 uM
HeLa = experiment: HeLa cell line Proliferation assay; format: functional, Homo sapiens; settings: time 3 day
[14] = molecular target: Protein-tyrosine kinase 2-beta (Homo sapiens) (UniProt Q14289); experiment: Pyk2(h) Eurofins kinase panel; settings: Compound concentration 1.0 uM

Fibroblast growth factor receptor 3 (Homo sapiens), P22607 [G697C], sequence (P22607 whole entry G697C): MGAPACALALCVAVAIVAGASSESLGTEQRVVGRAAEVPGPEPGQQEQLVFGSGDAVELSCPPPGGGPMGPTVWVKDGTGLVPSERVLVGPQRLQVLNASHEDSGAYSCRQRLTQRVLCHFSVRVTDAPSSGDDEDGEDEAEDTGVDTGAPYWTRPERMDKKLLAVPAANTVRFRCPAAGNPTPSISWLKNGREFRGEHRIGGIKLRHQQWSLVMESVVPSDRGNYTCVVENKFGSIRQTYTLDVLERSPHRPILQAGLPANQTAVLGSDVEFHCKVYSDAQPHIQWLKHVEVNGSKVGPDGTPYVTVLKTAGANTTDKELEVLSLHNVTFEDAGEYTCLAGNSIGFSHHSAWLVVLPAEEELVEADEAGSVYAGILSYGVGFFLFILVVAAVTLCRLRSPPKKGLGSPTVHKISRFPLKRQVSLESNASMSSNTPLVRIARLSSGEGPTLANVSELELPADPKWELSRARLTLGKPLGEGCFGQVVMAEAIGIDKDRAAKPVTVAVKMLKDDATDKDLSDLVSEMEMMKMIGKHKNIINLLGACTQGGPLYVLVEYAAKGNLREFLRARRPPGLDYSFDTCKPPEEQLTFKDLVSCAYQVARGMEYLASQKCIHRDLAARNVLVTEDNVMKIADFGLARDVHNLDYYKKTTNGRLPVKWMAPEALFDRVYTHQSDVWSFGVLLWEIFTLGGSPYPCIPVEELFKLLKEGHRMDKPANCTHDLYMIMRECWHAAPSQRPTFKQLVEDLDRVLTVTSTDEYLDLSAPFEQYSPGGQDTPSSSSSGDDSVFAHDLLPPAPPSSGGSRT
Calcium/calmodulin-dependent protein kinase type 1D (Homo sapiens), sequence (Q8IU85 whole entry, looked up): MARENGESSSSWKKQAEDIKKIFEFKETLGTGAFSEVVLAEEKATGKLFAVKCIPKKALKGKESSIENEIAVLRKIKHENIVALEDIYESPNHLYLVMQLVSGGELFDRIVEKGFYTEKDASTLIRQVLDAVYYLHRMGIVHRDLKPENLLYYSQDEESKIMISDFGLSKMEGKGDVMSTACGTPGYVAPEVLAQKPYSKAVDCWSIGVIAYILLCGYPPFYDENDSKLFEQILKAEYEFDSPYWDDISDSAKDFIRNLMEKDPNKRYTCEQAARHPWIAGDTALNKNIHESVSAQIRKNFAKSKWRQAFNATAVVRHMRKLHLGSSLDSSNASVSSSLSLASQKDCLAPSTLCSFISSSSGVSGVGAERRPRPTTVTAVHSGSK

Compound | residual activity [1] [%] | residual activity [2] [%] | residual activity [3] [%] | residual activity [4] [%] | residual activity [5] [%] | residual activity [6] [%] | residual activity [7] [%] | residual activity [8] [%] | residual activity [9] [%] | residual activity [10] [%] | residual activity [11] [%] | % residual kinase activity [12] [%] | % residual kinase activity [13] [%] | Cell Proliferation IC50 (HeLa) [µM] | % residual kinase activity [14] [%]
CC1=C(C#N)C(c2ccc3c(c2)c(NC(=O)c2ccccc2C)nn3C)C(C#N)=C(C)N1 [BAY-974] | 93 | 93 | 83 | 87 | 67 | 82 | 97 | 100 | 89 | 83 | 100 |  |  |  | 
CCc1ccccc1C(=O)Nc1n[nH]c2c(C)c(F)c(C3C(C#N)=C(C)N(C)C(C)=C3C#N)cc12 [BAY-3827] | 74 | 87 | 79 | 100 | 81 | 100 | 51 | 81 | 80 | 55 | 91 | 102 | 110 | 25.7 | 76
